# Test results as given in US20050171216A1, “Germicidal compositions containing phthalaldehyde mixtures and methods of using such compositions for disinfection or sterilization” (priority 2004, published 2005).
# Assays:
# solubility in water = type: physicochemical; details: for Concentration, Saturated: saturated aqueous germicidal solution, pH not adjusted
# [1] = tested on: Mycobacterium terrae bacteria; test: bacterial suspension test (killing of at least 1×10^6/mL bacteria); type: cell-based; details: for Log Reductions/mL: 20° C.; for Germicidal Efficacy: summary Table 14
# Procedure: The bacterial suspension test that was employed is described in Section VII.
# The solutions were prepared by adding the appropriate amounts of the germicidal compounds to an aqueous solution. Unless otherwise mentioned all concentrations reported herein are expressed in (w/v) %. The pH of the solution was not adjusted. The tests were conducted at a temperature of about 20° C. (room temperature). The results are presented in terms of log reductions/mL. It is understood that these examples, as well as the other examples herein, are to be construed as merely illustrative, and not limiting.
# In this test method, 9 mL of the germicide to be tested is placed in a tube, put into a water bath and allowed to come to the desired temperature. One mL of the test organism, including at least 7 logs/mL of Mycobacterium terrae bacteria, is added to the 9 mL of the germicide to be tested. […] It will be appreciated by those skilled in the art that other concentrations may be utilized by proper dilution and accounting.
# At appropriate time intervals, 1 mL aliquots of the germicide-cell suspension were removed and added directly into 9 mL of a 1% glycine solution (neutralizer) and mixed thoroughly to neutralize the germicide in the transferred suspension. The glycine solution was prepared from solid glycine, which is available from VWR Scientific Products, among others. The above-identified 10 mL neutralized solution was then poured through a membrane filter having an average pore size of 0.45 micrometers. The filter was then rinsed twice with at least 150 mL of the 1% glycine solution per rinse. The filter was then placed on an agar plate and incubated for twenty-one days at 37° C. In the above procedure, if dilution was needed, then the 1 mL germicidal-cell suspension was diluted in 99 mL of a phosphate buffer before addition to the 9 mL of the 1% glycine solution. The phosphate buffer was DiLu-LoK™ Butterfields Phosphate Buffer, available from Hardy Diagnostics, of Santa Maria, Calif.
# The surviving colonies are then counted. The data is plotted as S/So vs. time. So is the initial count of the bacteria in the above 10 mL solution which is at least 10^6 bacteria/mL, and S is the surviving bacteria from the above filter on the agar plate. The results of the experiments were presented in terms of log reductions. Log reduction is the difference between log(So) and log(S). As one example, if log(So)=6.2, and if there were 100 survivors, then the log(S)=2, and the log reduction was reported as 4.2.
compound,measurement,setting,value
4-pyridinyl-propanedial,"Concentration, Saturated",solubility in water,(˜2.3%) w/v %
same,Log Reductions/mL,"[1]; Saturated (˜2.3% w/v), 5 min",4.0 log reductions/mL
"O=CC(c1ccccc1)C(O)S(=O)(=O)[O-].[Na+] (stereo not drawn) [1-hydroxy-3-oxo-2-phenyl-propane-1-sulfonic acid, sodium salt]",Log Reductions/mL,"[1]; 0.6%, 5 min",2.1 log reductions/mL
same,Log Reductions/mL,"[1]; 0.6%, 20 min",2.5 log reductions/mL
same,Log Reductions/mL,"[1]; 0.6%, 25 min",2.9 log reductions/mL
same,Log Reductions/mL,"[1]; 0.6%, 60 min, sodium salt",total kill
same,Log Reductions/mL,"[1]; 2.5%, 10 min, sodium salt",total kill
O=CC(C=O)c1cccc(C(=O)O)c1[N+](=O)[O-] [3-(1-formyl-2-oxoethyl)-2-nitro-benzoic acid],"Concentration, Saturated",solubility in water,(˜2.1%) w/v %
same,Log Reductions/mL,"[1]; Saturated (˜2.1% w/v), 5 min",4.0 log reductions/mL
O=Cc1ccc(Br)cc1C=O [4-bromo-phthalaldehyde],Log Reductions/mL,"[1]; 0.1%, 10 minutes",5.6 log reductions/mL
same,Log Reductions/mL,"[1]; 0.1%, 30 minutes",Total Kill
O=Cc1ccc(Cl)cc1C=O [4-chloro-phthalaldehyde],Log Reductions/mL,"[1]; 0.2 w/v %, 5 min",5.9 log reductions/mL
same,Log Reductions/mL,"[1]; 2.7 w/v % in 20% isopropanol, 5 min",Total Kill
O=Cc1ccc(F)cc1C=O [4-fluoro-phthalaldehyde],Log Reductions/mL,"[1]; 0.25%, 60 minutes exposure",Total Kill
"O=Cc1ccccc1C(O)S(=O)(=O)[O-].[Na+] (stereo not drawn) [(2-formyl-phenyl)-hydroxy-methane sulfonic acid, sodium salt]",Log Reductions/mL,"[1]; 9.1%, no dialdehyde, 5 min, listed as (2-formyl-phenyl)-hydroxy-methane sulfonate, sodium salt",confluent
same,Log Reductions/mL,"[1]; 9.1%, no dialdehyde, 5 min, listed as H-SULF, sodium salt",Confluent
"O=Cc1cccc(C=O)c1 [IPA, isophthalaldehyde]",Log Reductions/mL,"[1]; 0.3%, dissolved in 20% isopropanol, 5 min",Confluent
same,Log Reductions/mL,"[1]; 0.3%, dissolved in 20% isopropanol, 5 min (Table 15)",Confluent
same,Germicidal Efficacy,[1],Poor
"O=Cc1ccccc1C=O [OPA, phthalaldehyde]",solubility in water,solubility in water,about 5 % by weight
same,Log Reductions/mL,"[1]; 0.14%, 5 min",4.8 log reductions/mL
same,Log Reductions/mL,"[1]; 0.28%, 5 min",5.5 log reductions/mL
same,Germicidal Efficacy,[1],Good
"O=Cc1ccc(C=O)cc1 [TPA, terephthalaldehyde]",Log Reductions/mL,"[1]; 0.2%, dissolved in 20% isopropanol, 5 min",Confluent
same,Germicidal Efficacy,[1],Poor
O=CC(C=O)c1ccccc1 [phenyl-propanedial],solubility in water,solubility in water,about 1%
same,Log Reductions/mL,"[1]; 0.2%, 60 min",2.1 log reductions/mL
same,Log Reductions/mL,"[1]; 0.22%, 60 min",2.1 log reductions/mL
same,Log Reductions/mL,"[1]; 0.3%, 30 min",2.1 log reductions/mL
same,Log Reductions/mL,"[1]; 0.33%, 30 min",2.1 log reductions/mL
same,Log Reductions/mL,"[1]; 0.4%, 30 min",2.5 log reductions/mL
same,Log Reductions/mL,"[1]; 0.44%, 30 min",2.5 log reductions/mL
same,Log Reductions/mL,"[1]; 0.66%, 5 min",<2.5 log reductions/mL
same,Log Reductions/mL,"[1]; 0.66%, 10 min",2.5 log reductions/mL
same,Log Reductions/mL,"[1]; 0.7%, 10 min",2.5 log reductions/mL
same,Log Reductions/mL,"[1]; ˜1%, 5 min (Table 15)",4.5 log reductions/mL
